Reference: patent US20230053688A1, “METHODS TO ALTER LATENCY IN EBV+ MALIGNANCIES” (Cornell University, priority 2020, published 2023)
Counter-ions that a name gives are not always drawn. Like-named read-outs stand apart in the source and are kept apart here.

Tested on: LMP1 expression in Kem I cells
Experiment: microbe, parasite or virus in culture
Assay type: cell-based, EBV
Conditions: for Average LMP1 Fold Increase / Replicate 1-LMP1 Fold Increase / Replicate 2-LMP1 Fold Increase: Kem I cells, 48 hours; for fold induction at 2.5 µM: human gammaherpesvirus 4, 48 h
[1] = 2.5 uM, average of replicates 1 and 2
[2] = 2.5 uM, fold change in LMP1 transcript vs vehicle
[3] = read-out: Average LMP1 Fold Increase, Kem I cells, 2.5 uM, 48 hours, average of replicates 1 and 2
[4] = read-out: Replicate 1-LMP1 Fold Increase, Kem I cells, 2.5 uM, 48 hours, fold change in LMP1 transcript vs vehicle
[5] = read-out: Replicate 2-LMP1 Fold Increase, Kem I cells, 2.5 uM, 48 hours, fold change in LMP1 transcript vs vehicle
[6] = read-out: Average LMP1 Fold Increase, Kem I cells, dose 2.5 uM, 48 hours, LMP1 transcript by in-well qRT-PCR, average of the two replicates
[7] = read-out: Replicate 1-LMP1 Fold Increase, Kem I cells, dose 2.5 uM, 48 hours, LMP1 transcript by in-well qRT-PCR, screen replicate 1
[8] = read-out: Replicate 2-LMP1 Fold Increase, Kem I cells, dose 2.5 uM, 48 hours, LMP1 transcript by in-well qRT-PCR, screen replicate 2
[9] = dose 2.5 uM, LMP1 transcript by in-well qRT-PCR, average of the two replicates
[10] = dose 2.5 uM, LMP1 transcript by in-well qRT-PCR, screen replicate 1
[11] = dose 2.5 uM, LMP1 transcript by in-well qRT-PCR, screen replicate 2

Row | SMILES | Average LMP1 Fold Increase [1] | Replicate 1-LMP1 Fold Increase [2] | Replicate 2-LMP1 Fold Increase [2] | fold induction at 2.5 µM [3] | fold induction at 2.5 µM [4] | fold induction at 2.5 µM [5] | also measured
1 | O=C(Nc1cccnc1)N1CCC(Cc2cccc(Oc3ccc(C(F)(F)F)cn3)c2)CC1 [PF-3845] | 0.32 | 0.16 | 0.48 |  |  |  | 
2 | N#CC[C@H](C1CCCC1)n1cc(-c2ncnc3[nH]ccc23)cn1 [Ruxolitinib (INCB018424)] | 0.41 | 0.48 | 0.34 |  |  |  | 
3 | COc1cc(OC)c(NC(=O)Nc2cc(C)on2)cc1Cl [PNU-120596] | 0.30 | 0.17 | 0.44 |  |  |  | 
4 | C[C@@H]1CN(CC(=O)Nc2ccc3c(c2)Cc2cccc(-c4cc(=O)cc(N5CCOCC5)o4)c2S3)C[C@H](C)O1 [KU-60019] |  |  |  | 0.51 | 0.49 | 0.53 | 
5 | Nc1cccc2c1C(=O)N(C1CCC(=O)NC1=O)C2=O (stereo not drawn) [Pomalidomide] |  |  |  | 5.8 | 3.72 | 7.87 | 
6 | COc1cc(F)c(C(C)C)cc1-c1ccc(C(F)(F)F)cc1CN1C(=O)O[C@H](c2cc(C(F)(F)F)cc(C(F)(F)F)c2)[C@@H]1C [Anacetrapib (MK-0859)] | 0.63 | 0.80 | 0.46 |  |  |  | 
7 | CCn1c2ccccc2c2cc(Nc3ccnc(NCCCN4CCOCC4)n3)ccc21 [EHop-016] | 1.06 | 0.70 | 1.43 |  |  |  | 
8 | C[C@]1(O)C[C@@H](c2nc(-c3ccc4ccc(-c5ccccc5)nc4c3)c3c(N)nccn32)C1 [OSI-906 (Linsitinib)] | 0.81 | 0.68 | 0.94 |  |  |  | 
9 | CN1CC(=O)N2[C@H](c3ccc4c(c3)OCO4)c3[nH]c4ccccc4c3C[C@@H]2C1=O [Tadalafil] |  |  |  |  |  |  | fold induction at 2.5 µM [6]: 3.06; fold induction at 2.5 µM [7]: 3.8; fold induction at 2.5 µM [8]: 2.32
10 | C[C@@H](O[C@H]1OCCN(Cc2n[nH]c(=O)[nH]2)[C@H]1c1ccc(F)cc1)c1cc(C(F)(F)F)cc(C(F)(F)F)c1 [Aprepitant] |  |  |  | 0.99 | 1.58 | 0.41 | 
11 | COC1CCN(C(=O)c2cc(Cc3n[nH]c(=O)c4ccccc34)ccc2F)CC1 [AZD2461] | 1.00 | 0.50 | 1.51 |  |  |  | 
12 | CCCSc1nc(N[C@@H]2C[C@H]2c2ccc(F)c(F)c2)c2nnn([C@@H]3C[C@H](OCCO)[C@@H](O)[C@H]3O)c2n1 [Ticagrelor] |  |  |  |  |  |  | fold induction at 2.5 µM [6]: 0.66; fold induction at 2.5 µM [7]: 0.61; fold induction at 2.5 µM [8]: 0.7
13 | CCCCNc1ncc(-c2ccc(CN3CCOCC3)cn2)c(NC2CCC(O)CC2)n1 (stereo not drawn) [UNC2250] |  |  |  |  |  |  | Average LMP1 Fold Increase [9]: 0.41 fold; Replicate 1-LMP1 Fold Increase [10]: 0.54 fold; Replicate 2-LMP1 Fold Increase [11]: 0.29 fold
14 | CO[C@H]1C[C@@H]2CC[C@@H](C)[C@@](O)(O2)C(=O)C(=O)N2CCCC[C@H]2C(=O)O[C@H]([C@H](C)C[C@@H]2CC[C@@H](OP(C)(C)=O)[C@H](OC)C2)CC(=O)[C@H](C)/C=C(\C)[C@@H](O)[C@@H](OC)C(=O)[C@H](C)C[C@H](C)/C=C/C=C/C=C/1C [Ridaforolimus (Deforolimus, MK-8669)] | 3.37 | 6.08 | 0.67 |  |  |  | 
15 | COc1cc(N2CCC(N3CCN(C)CC3)CC2)ccc1Nc1ncc(Cl)c(Nc2ccccc2P(C)(C)=O)n1 [AP26113] |  |  |  | 0.92 | 1.07 | 0.77 | 
16 | CCCCCCCCc1ccc(CCC(N)(CO)CO)cc1.Cl [Fingolimod (FTY720) HCl] | 0.69 | 0.33 | 1.06 |  |  |  | 
17 | O=c1cc(-c2ccc(O)cc2)oc2cc(O)cc(O)c12 [Apigenin] |  |  |  | 0.58 | 0.69 | 0.47 | 
18 | O=C(O)/C=C/c1ccc(Cn2ccnc2)cc1 [Ozagrel HCl] | 0.79 | 0.85 | 0.72 |  |  |  | 
19 | CCN(CC)C(=O)/C(C#N)=C/c1cc(O)c(O)c([N+](=O)[O-])c1 [Entacapone] |  |  |  | 0.6 | 0.49 | 0.71 | 
20 | Cc1cc(-c2ccc(CC(=O)Nc3ccc(-c4cccnc4)cc3)cc2)ccn1 [Wnt-C59 (C59)] |  |  |  |  |  |  | Average LMP1 Fold Increase [9]: 0.98 fold; Replicate 1-LMP1 Fold Increase [10]: 0.60 fold; Replicate 2-LMP1 Fold Increase [11]: 1.35 fold
21 | Cc1ccc(S(=O)(=O)NC(=O)NN2CC3CCCC3C2)cc1 (stereo not drawn) [Gliclazide] |  |  |  | 0.73 | 0.98 | 0.49 | 
22 | CC1=C(C(=O)Nc2cc3cn[nH]c3cc2F)C(c2ccc(C(F)(F)F)cc2)CC(=O)N1 (stereo not drawn) [GSK429286A] | 0.57 | 0.60 | 0.54 |  |  |  | 
23 | Cc1cc(SCc2sc(-c3ccc(C(F)(F)F)c(F)c3)nc2C)ccc1OCC(=O)O [GW0742] | 0.76 | 0.53 | 0.99 |  |  |  | 
24 | Cc1cc(Nc2cc(N3CCN(C)CC3)nc(Sc3ccc(NC(=O)C4CC4)cc3)n2)n[nH]1 [VX-680 (Tozasertib, MK-0457)] |  |  |  |  |  |  | Average LMP1 Fold Increase [9]: 0.74 fold; Replicate 1-LMP1 Fold Increase [10]: 0.96 fold; Replicate 2-LMP1 Fold Increase [11]: 0.52 fold
25 | COc1ccc2c(c1)c(C1=C(c3c[nH]c4ccccc34)C(=O)NC1=O)cn2CCCN(C)C [Go 6983] | 0.34 | 0.22 | 0.45 |  |  |  | 
26 | CC(C)N(CCCNC(=O)Nc1ccc(C(C)(C)C)cc1)C[C@H]1O[C@@H](n2cc(Br)c3c(N)ncnc32)[C@H](O)[C@@H]1O [SGC 0946] |  |  |  | 0.29 | 0.26 | 0.31 | 
27 | C[C@@H]1O[C@@H](O[C@H]2C[C@@H](O)[C@]3(CO)[C@H]4[C@H](O)C[C@]5(C)[C@@H](C6=CC(=O)OC6)CC[C@]5(O)[C@@H]4CC[C@]3(O)C2)[C@H](O)[C@H](O)[C@H]1O [Ouabain] |  |  |  | 92.1 | 22.8 | 161 | 
28 | Cc1cnc(-c2cc(N3CCN(C(=O)CCS(C)(=O)=O)CC3)ncc2Cl)c(C)c1 [PF-5274857] | 0.87 | 1.12 | 0.62 |  |  |  | 
29 | C[C@]12C=CC(=O)N[C@@H]1CC[C@@H]1[C@@H]2CC[C@]2(C)[C@@H](C(=O)Nc3cc(C(F)(F)F)ccc3C(F)(F)F)CC[C@@H]12 [Dutasteride] |  |  |  | 0.39 | 0.38 | 0.41 | 
30 | Cc1cc2c(C(C)C)c(O)c(O)c(C=O)c2c(O)c1-c1c(C)cc2c(C(C)C)c(O)c(O)c(C=O)c2c1O [AT101] |  |  |  | 1.04 | 0.51 | 1.58 | 
